In patent US7169931B2, “Cyclic compounds exhibiting thrombopoietin receptor agonism” (Shionogi & Co., Ltd., priority 2001, dated 2007):

biological target: T1, human TPO receptor (Homo sapiens, UniProt P40238); assay: Thrombopoietic activity: proliferation of TPO dependent BaF/hTPOR cells (WST-1); assay type: cell-based; settings: BaF/hTPOR cell line (BaF-B03 with human TPO receptor), without IL-3; 20 hours incubation + 4 hours WST-1, absorbance 450 nm; ED50 = half concentration of the concentration showing maximum thrombopoietic activity
T1 construct: expressed in transfected cells; host or cells: BaF-B03 (murine IL-3 dependent cell line)
T1 sequence (P40238 26-635): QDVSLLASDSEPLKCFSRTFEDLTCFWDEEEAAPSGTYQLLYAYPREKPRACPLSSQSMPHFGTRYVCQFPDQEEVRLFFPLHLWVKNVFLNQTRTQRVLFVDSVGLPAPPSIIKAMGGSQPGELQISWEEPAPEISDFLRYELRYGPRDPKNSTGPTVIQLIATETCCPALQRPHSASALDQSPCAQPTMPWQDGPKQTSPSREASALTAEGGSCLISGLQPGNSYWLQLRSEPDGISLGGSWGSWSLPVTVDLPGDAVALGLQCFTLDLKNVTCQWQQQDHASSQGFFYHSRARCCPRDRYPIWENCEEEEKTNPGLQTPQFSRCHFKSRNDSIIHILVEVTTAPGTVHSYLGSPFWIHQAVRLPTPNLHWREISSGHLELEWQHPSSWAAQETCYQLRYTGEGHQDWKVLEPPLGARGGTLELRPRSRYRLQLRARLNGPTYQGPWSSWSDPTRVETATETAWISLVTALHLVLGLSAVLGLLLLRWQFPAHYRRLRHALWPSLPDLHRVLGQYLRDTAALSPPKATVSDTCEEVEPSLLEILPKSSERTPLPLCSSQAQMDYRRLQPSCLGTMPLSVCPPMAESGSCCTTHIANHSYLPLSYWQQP
Protocol: BAF/hTPOR cells were maintained in RPMI medium and WEHI-3B conditioned medium as a source of murine interleukin-3 (IL-3). These cells were washed and resuspended in RPMI medium without a source of murine IL-3 and seeded into each well of 96-well microtiter plates at a density of 5×10^4 cells per well in the absence or presence of various concentration of hTPO or the present compound. After incubation at 37° C. for 20 hours in the 5% CO2 incubator, 10% WST-1 reagent (Takara Biomedicals, Japan) was added to each wells and the cells were further incubated for 4 hours. The absorbance at 450 nm was measured.

EC50	SMILES
0.04 µM	O=C(Nc1nc(-c2ccc(Cl)c(Cl)c2)cs1)c1ccc2c(c1)CCC(C(=O)O)C2 (centres unmarked) [Compound A-1]
0.376 µM	O=C(O)c1ccc2c(c1)CCC(C(=O)Nc1nc(-c3ccc(Cl)c(Cl)c3)cs1)C2 (centres unmarked) [Compound A-2]
0.965 µM	O=C(Nc1nc(-c2ccc(Cl)c(Cl)c2)cs1)c1ccc2c(c1)CC(C(=O)O)CC2 (centres unmarked) [Compound A-3]
0.069 µM	O=C(Nc1nc(-c2cccc(C(F)(F)F)c2F)cs1)c1ccc2c(c1)CCC(C(=O)O)C2 (centres unmarked) [Compound B-1]
0.214 µM	O=C(Nc1nc(-c2ccc3c(c2)CCCC3)cs1)c1ccc2c(c1)CCC(C(=O)O)C2 (centres unmarked) [Compound B-2]
0.219 µM	CCCCc1cccc(-c2csc(NC(=O)c3ccc4c(c3)CCC(C(=O)O)C4)n2)c1 (centres unmarked) [Compound B-3]
0.11 µM	O=C(Nc1nc(-c2ccc(C(F)(F)F)cc2F)cs1)c1ccc2c(c1)CCC(C(=O)O)C2 (centres unmarked) [Compound B-4]
0.056 µM	CCCCCc1cccc(-c2csc(NC(=O)c3ccc4c(c3)CCC(C(=O)O)C4)n2)c1F (centres unmarked) [Compound B-5]
0.066 µM	CCCCCc1cc(-c2csc(NC(=O)c3ccc4c(c3)CCC(C(=O)O)C4)n2)ccc1F (centres unmarked) [Compound B-6]
0.28 µM	O=C(Nc1nc(-c2ccc(F)c(F)c2)cs1)c1ccc2c(c1)CCC(C(=O)O)C2 (centres unmarked) [Compound B-7]
0.12 µM	O=C(Nc1nc(-c2cccc(C(F)(F)F)c2)cs1)c1ccc2c(c1)CCC(C(=O)O)C2 (centres unmarked) [Compound B-8]
0.0281 µM	O=C(Nc1nc(-c2cccc(F)c2F)cs1)c1ccc2c(c1)CCC(C(=O)O)C2 (centres unmarked) [Compound B-9]
0.048 µM	O=C(Nc1nc(-c2ccc(Cl)c(Cl)c2)c(F)s1)c1ccc2c(c1)CCC(C(=O)O)C2 (centres unmarked) [Compound B-10]
0.066 µM	CC(C)c1cccc(-c2csc(NC(=O)c3ccc4c(c3)CCC(C(=O)O)C4)n2)c1F (centres unmarked) [Compound B-11]
0.074 µM	O=C(Nc1nc(-c2cccc(C3CCCCC3)c2F)cs1)c1ccc2c(c1)CCC(C(=O)O)C2 (centres unmarked) [Compound B-12]
0.342 µM	O=C(Nc1nc(-c2cccc(C3CCOCC3)c2F)cs1)c1ccc2c(c1)CCC(C(=O)O)C2 (centres unmarked) [Compound B-13]
0.042 µM	O=C(Nc1nc(-c2cccc(OC(F)(F)F)c2F)cs1)c1ccc2c(c1)CCC(C(=O)O)C2 (centres unmarked) [Compound B-14]
0.059 µM	O=C(Nc1nc(-c2cccc(CCc3ccccc3)c2F)cs1)c1ccc2c(c1)CCC(C(=O)O)C2 (centres unmarked) [Compound B-15]

EC50	SMILES
0.098 µM	CCCCOc1cccc(-c2csc(NC(=O)c3ccc4c(c3)CCC(C(=O)O)C4)n2)c1F (centres unmarked) [Compound B-16]
0.146 µM	Cc1sc(NC(=O)c2ccc3c(c2)CCC(C(=O)O)C3)nc1-c1cccc(C(F)(F)F)c1 (centres unmarked) [Compound B-17]
0.072 µM	O=C(Nc1nc(-c2cccc(C3CCCC3)c2F)cs1)c1ccc2c(c1)CCC(C(=O)O)C2 (centres unmarked) [Compound B-18]
0.048 µM	CC(C)Cc1cccc(-c2csc(NC(=O)c3ccc4c(c3)CCC(C(=O)O)C4)n2)c1F (centres unmarked) [Compound B-19]
0.068 µM	CCCc1cccc(-c2csc(NC(=O)c3ccc4c(c3)CCC(C(=O)O)C4)n2)c1F (centres unmarked) [Compound B-20]
0.06 µM	CCCCc1cccc(-c2csc(NC(=O)c3ccc4c(c3)CCC(C(=O)O)C4)n2)c1F (centres unmarked) [Compound B-21]
0.064 µM	COC(c1cccc(-c2csc(NC(=O)c3ccc4c(c3)CCC(C(=O)O)C4)n2)c1F)C(C)C (centres unmarked) [Compound B-22]
0.045 µM	COC(c1cccc(-c2csc(NC(=O)c3ccc4c(c3)CCC(C(=O)O)C4)n2)c1F)C1CCCCC1 (centres unmarked) [Compound B-23]
0.053 µM	O=C(Nc1nc(-c2cccc(C(F)(F)F)c2)c(F)s1)c1ccc2c(c1)CCC(C(=O)O)C2 (centres unmarked) [Compound B-24]
0.038 µM	CCOC(c1cccc(-c2csc(NC(=O)c3ccc4c(c3)CCC(C(=O)O)C4)n2)c1F)C(C)C (centres unmarked) [Compound B-25]
0.025 µM	CCCCCCCc1cccc(-c2csc(NC(=O)c3ccc4c(c3)CCC(C(=O)O)C4)n2)c1F (centres unmarked) [Compound B-26]
0.024 µM	CCCCCCCCc1cccc(-c2csc(NC(=O)c3ccc4c(c3)CCC(C(=O)O)C4)n2)c1F (centres unmarked) [Compound B-27]
0.023 µM	CCCCCCCCCCc1cccc(-c2csc(NC(=O)c3ccc4c(c3)CCC(C(=O)O)C4)n2)c1F (centres unmarked) [Compound B-28]
0.049 µM	CCCc1c(Br)ccc(-c2csc(NC(=O)c3ccc4c(c3)CCC(C(=O)O)C4)n2)c1F (centres unmarked) [Compound B-29]
0.142 µM	CCOCCc1cccc(-c2csc(NC(=O)c3ccc4c(c3)CCC(C(=O)O)C4)n2)c1F (centres unmarked) [Compound B-30]
0.104 µM	O=C(Nc1nc(-c2cccc(Cc3ccccc3)c2F)cs1)c1ccc2c(c1)CCC(C(=O)O)C2 (centres unmarked) [Compound B-31]
0.096 µM	CCOC(C)(C)c1cccc(-c2csc(NC(=O)c3ccc4c(c3)CCC(C(=O)O)C4)n2)c1F (centres unmarked) [Compound B-32]
0.37 µM	O=C(Nc1nc(-c2cccc(C(F)(F)F)c2F)cs1)c1ccc2c(c1)CC(C(=O)O)C2 [Compound D-3]

More lines, now with the values behind:

SMILES	EC50
O=C(Nc1nc(-c2ccc(Cl)c(Cl)c2)cs1)c1ccc2c(c1)CCC(F)(C(=O)O)C2 (centres unmarked) [Compound A-4]	0.148 µM
COC(=O)C1(F)CCc2cc(C(=O)Nc3nc(-c4ccc(Cl)c(Cl)c4)cs3)ccc2C1 (centres unmarked) [Compound A-5]	0.165 µM
O=C(Nc1nc(-c2ccc(Cl)c(Cl)c2)cs1)c1ccc2c(c1)C(=O)CC(C(=O)O)C2 (centres unmarked) [Compound A-6]	0.21 µM
COC(=O)C1CC(=O)c2cc(C(=O)Nc3nc(-c4ccc(Cl)c(Cl)c4)cs3)ccc2C1 (centres unmarked) [Compound A-7]	0.25 µM
COC(=O)[C@@H]1Cc2ccc(C(=O)Nc3nc(-c4ccc(Cl)c(Cl)c4)cs3)cc2[C@H](O)C1 [Compound A-8]	2.28 µM
O=C(Nc1nc(-c2ccc(Cl)c(Cl)c2)cs1)c1ccc2c(c1)C(F)CC(C(=O)O)C2 (centres unmarked) [Compound A-9]	0.306 µM
COC(=O)C1Cc2ccc(C(=O)Nc3nc(-c4ccc(Cl)c(Cl)c4)cs3)cc2C(=O)C1F (centres unmarked) [Compound A-11]	0.552 µM
COC(=O)CC1Cc2ccc(C(=O)Nc3nc(-c4ccc(Cl)c(Cl)c4)cs3)cc2C1=O (centres unmarked) [Compound A-13]	0.27 µM
O=C(O)CC1Cc2ccc(C(=O)Nc3nc(-c4ccc(Cl)c(Cl)c4)cs3)cc2C1=O (centres unmarked) [Compound A-14]	0.23 µM
COC(=O)CC1Cc2ccc(C(=O)Nc3nc(-c4ccc(Cl)c(Cl)c4)cs3)cc2C1 (centres unmarked) [Compound A-15]	0.24 µM
O=C(O)CC1Cc2ccc(C(=O)Nc3nc(-c4ccc(Cl)c(Cl)c4)cs3)cc2C1 (centres unmarked) [Compound A-16]	0.23 µM
O=C(O)c1ccc2cc(C(=O)Nc3nc(-c4ccc(Cl)c(Cl)c4)cs3)ccc2c1 [Compound A-17]	0.023 µM
COC(=O)c1ccc2cc(C(=O)Nc3nc(-c4ccc(Cl)c(Cl)c4)cs3)ccc2c1 [Compound A-18]	0.043 µM
COC(=O)c1ccc2cc(C(=O)Nc3nc(-c4ccc(Cl)c(Cl)c4)cs3)ccc2n1 [Compound A-22]	0.19 µM
O=C(Nc1nc(-c2ccc(Cl)c(Cl)c2)cs1)c1ccc2cc(C(=O)O)sc2c1 [Compound C-2]	0.071 µM
O=C(Nc1nc(-c2ccc(Cl)c(Cl)c2)cs1)c1ccc2oc(C(=O)O)cc2c1 [Compound C-3]	0.995 µM
O=C(Nc1nc(-c2ccc(Cl)c(Cl)c2)cs1)c1ccc2cc(C(=O)O)oc2c1 [Compound C-4]	0.567 µM
Cc1c(C(=O)O)oc2ccc(C(=O)Nc3nc(-c4ccc(Cl)c(Cl)c4)cs3)cc12 [Compound C-5]	0.88 µM
O=C(Nc1nc(-c2cccc(C(F)(F)F)c2F)cs1)c1ccc2sc(C(=O)O)cc2c1 [Compound D-1]	0.021 µM
O=C(O)c1ccc2cc(C(=O)Nc3nc(-c4cccc(C(F)(F)F)c4F)cs3)ccc2c1 [Compound D-2]	0.019 µM
CCOC(=O)C1=Cc2ccc(C(=O)Nc3nc(-c4cccc(C(F)(F)F)c4F)cs3)cc2C1 [Compound D-4]	0.25 µM
O=C(O)C1=Cc2ccc(C(=O)Nc3nc(-c4cccc(C(F)(F)F)c4F)cs3)cc2C1 [Compound D-5]	0.21 µM
CCOC(=O)C1Cc2cc(C(=O)Nc3nc(-c4cccc(C(F)(F)F)c4F)cs3)ccc2C1=O [Compound D-6]	2.54 µM
O=C(O)C1=Cc2ccc(C(=O)Nc3nc(-c4cccc(C(F)(F)F)c4F)cs3)cc2CC1 [Compound D-7]	0.045 µM
COC(=O)c1cc2ccc(C(=O)Nc3nc(-c4cccc(C(F)(F)F)c4F)cs3)cc2oc1=O [Compound D-8]	1.93 µM
O=C(O)c1ccc2sc(C(=O)Nc3nc(-c4ccc(Cl)c(Cl)c4)cs3)cc2c1 [Compound E-1]	16.5 µM
